In US12178825B2, “Method and compositions for forming a copper-containing complex and uses thereof” (COLD SPRING HARBOR LABORATORY, priority 2017, dated 2024):
Entries after “also recorded” stand apart in the source; their conditions may differ.

What was measured:
[1] = ESI-MS analysis of complex formation with copper salts; format: binding; conditions: for Percentage (binding percentage): DPM-1013:Cu = 1:8
Description: Eight equivalents of M(NO3)2·xH2O or MSO4·xH2O (M=Cu, Zn) were reacted with 1 eq. of DPM-1001 (1 mM in H2O). The reaction solutions were stirred at RT, 40° C. and 80° C. for 2 h. Mass spectra were recorded on a Bruker Esquire 6000 HCT quadrupole ion trap instrument (Bruker Daltonik GmbH, Leipzig, Germany), equipped with an electrospray ionization (ESI) source. Generation of the molecular formula of the DPM-1001/Cu(II) species and the comparison between the theoretical (simulated) and the measured isotopic patterns was performed using the DataAnalysis 4.0 software (Bruker).
(§1) Eight equivalents of M(NO3)2·xH2O or MSO4·xH2O were reacted with 1 eq. of DPM-1001, DPM-1003 or analog 2 (1 mM in H2O). The reaction solutions were stirred at RT, 40° C. and 80° C. for 2 h. Each sample was diluted 5-fold in 50% methanol, 0.1% formic acid and loaded into a 500 μL syringe. A Thermo Vantage triple quadrupole mass spectrometer (Thermo Scientific), equipped with an HESI spray source was coupled to an Accela HPLC system (Thermo Scientific). Mobile phase A consisted of 0.1% formic acid and mobile phase B consisted of 0.1% formic acid in methanol. Isocratic flow was set to 50% B at 200 μL/min. 200 μl samples were injected into the LC flow line via syringe pump at 10 μL/min and electrosprayed into the Vantage triple quadrupole mass spectrometer. A spray voltage of 4.3 kV was used along with a capillary temperature of 350° C. Each full MS scan was 0.5 s and data were collected with a scan range of 200 m/z to 900 m/z over 1 min.
Binding of compounds of Formula I other than DPM-1001 was also confirmed. In an ESI-MS test, compound DPM-1013 as hydrochloride salt was dissolved in distilled water at a concentration of 2 mM freshly before testing. It was then mixed with an equal volume copper sulfate (16 mM) or copper chloride solution (16 mM) for 2 h, rendering a concentration of DPM-1013 at 1 mM and the copper salt 8 mM. The mixture was then further diluted 100-fold before injection into an ESI-MS, making a final concentration of DPM-1013 of 10 μM and Cu 80 μM in the test.
Binding percentage=peak intensity of all DPM-1013-Cu complex/(peak intensity of all DPM-1013-Cu complex+peak intensity of free DPM-1013).

[2] = ESI-MS analysis of complex formation with a series of other metal ions; format: binding; conditions: panel of metals
Description: as §1

[3] = target: T1, PTP1B1-405 (Homo sapiens, UniProt P18031); experiment: PTP1B phosphatase activity assay, DiFMUP substrate, long form; format: biochemical
T1 construct: PTP1B1-405 (the long form of PTP1B which contains the extended C-terminal segment); made in house; host or cells: Escherichia coli BL21 (DE3)-RIL
T1 sequence (P18031 1-405): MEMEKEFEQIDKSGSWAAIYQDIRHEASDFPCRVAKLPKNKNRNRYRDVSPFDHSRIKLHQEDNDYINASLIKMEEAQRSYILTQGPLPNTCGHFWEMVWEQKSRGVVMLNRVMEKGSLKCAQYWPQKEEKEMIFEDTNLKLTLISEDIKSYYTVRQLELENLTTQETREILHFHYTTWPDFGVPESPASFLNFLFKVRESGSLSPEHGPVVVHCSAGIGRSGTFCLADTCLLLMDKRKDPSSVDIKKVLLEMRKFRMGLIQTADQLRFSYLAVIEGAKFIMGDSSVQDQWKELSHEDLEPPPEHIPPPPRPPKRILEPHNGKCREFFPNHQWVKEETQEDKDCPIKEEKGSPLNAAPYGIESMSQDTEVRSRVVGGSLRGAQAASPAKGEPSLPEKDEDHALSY
Description: (§2) All common reagents were obtained from Thermo Fisher Scientific (Waltham, MA) or Sigma-Aldrich (St. Louis, MO). Difluoro-4-methylumbelliferyl phosphate (DiFMUP) was obtained from Invitrogen (cat #D22065). Solid black 384-well plates (cat #3573) for phosphatase assays were from Corning Incorporated (Corning, NY).
(§3) Wild-type PTP1B containing a His-tag was expressed in Escherichia coli BL21 (DE3)-RIL using LB. Cells were resuspended in lysis buffer (50 mM Hepes pH 7.2, 150 mM NaCl, 10 mM imidazole, 2 mM TCEP) with cOmplete EDTA-free Protease Inhibitor Cocktail (Roche), and then lysed using a sonicator at 4° C. Lysates were clarified by centrifugation. Initial protein purification was by gravity flow, nickel column chromatography. Protein was used immediately or stored at −80° C. in 50 mM HEPES pH 7.4, 100 mM NaCl, 2 mM dithiothreitol and 25% glycerol.

[4] = target: T2, PTP1B1-321 (Homo sapiens, UniProt P18031); experiment: PTP1B phosphatase activity assay, short form; format: biochemical; conditions: enzyme-inhibitor complex diluted, activity recovery monitored
T2 construct: C-terminally truncated PTP1B (1-321); made in house; host or cells: Escherichia coli BL21 (DE3)-RIL
T2 sequence (P18031 1-321): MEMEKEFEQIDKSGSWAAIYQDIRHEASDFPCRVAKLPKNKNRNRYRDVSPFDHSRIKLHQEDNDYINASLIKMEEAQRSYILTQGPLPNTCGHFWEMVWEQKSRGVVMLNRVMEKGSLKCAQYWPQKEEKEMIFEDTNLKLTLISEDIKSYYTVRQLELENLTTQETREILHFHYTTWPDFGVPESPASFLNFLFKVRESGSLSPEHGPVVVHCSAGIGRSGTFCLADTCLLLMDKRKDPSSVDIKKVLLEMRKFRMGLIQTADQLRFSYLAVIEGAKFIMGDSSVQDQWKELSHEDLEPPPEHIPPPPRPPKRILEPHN
Description: as §2, §3

[5] = target: PTP1B-L192A/S372P (Homo sapiens, UniProt P18031, L192A/S372P); experiment: Phosphatase assay with MSI-1436-resistant mutant; format: biochemical
PTP1B-L192A/S372P, sequence (P18031 whole entry L192A/S372P): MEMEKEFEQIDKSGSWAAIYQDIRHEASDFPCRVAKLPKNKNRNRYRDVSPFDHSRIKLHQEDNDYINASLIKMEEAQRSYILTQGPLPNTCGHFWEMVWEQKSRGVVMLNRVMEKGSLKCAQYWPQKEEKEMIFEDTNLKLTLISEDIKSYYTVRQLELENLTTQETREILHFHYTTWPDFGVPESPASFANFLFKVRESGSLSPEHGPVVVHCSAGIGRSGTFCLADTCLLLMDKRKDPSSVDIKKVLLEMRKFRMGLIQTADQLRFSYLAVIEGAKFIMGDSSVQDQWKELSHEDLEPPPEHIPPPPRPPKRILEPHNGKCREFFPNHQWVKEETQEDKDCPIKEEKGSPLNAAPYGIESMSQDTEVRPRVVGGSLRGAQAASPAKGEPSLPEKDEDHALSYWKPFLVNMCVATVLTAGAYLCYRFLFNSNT
From the text: as §2

[6] = tested on: TX mice; experiment: Tissue and fecal copper levels (ICP-MS, rhodanine staining); format: in vivo, mouse
Description: C3He-Atp7b^tx-j were obtained from the Jackson laboratory. All animal experiments were performed according to protocols approved by the Institutional Animal Use and Care Committee of Cold Spring Harbor laboratory. Mice were injected intraperitoneally (i.p.) with vehicle, or administered DPM-1001 intraperitoneally or orally at 5 mg/kg once every third day, for over a year. At the end of the study animals were euthanized and tissue samples were removed for biochemical studies.
Tissue samples from wild-type or TX mice treated with saline, DPM-1001 or tetrathiomolybdate was washed three times with PBS containing 1 mM EDTA (to remove nonspecifically bound copper). Then, 215 μl of concentrated nitric acid (BDH Aristar Ultra) was added to each sample and incubated overnight. Samples were boiled at 95° C. for 1 h. and approximately 150 μl of each sample was further diluted in 2 ml 2% nitric acid (made freshly from concentrated nitric acid and Milli-Q water) Samples were analyzed on a Thermo Fisher iCAP Qc ICP mass spectrometer in kinetic energy discrimination (KED) mode against a calibration curve of known copper and phosphorus concentrations, with Ga (20 μg/l, Inorganic Ventures) as an internal standard, Each experiment was carried out twice and each condition was repeated in at least triplicate.
Liver tissues from wild-type and TX mice from untreated and DPM-1001-treated mice were sectioned and stained with H&E or rhodanine. Whole-slide, digitized images of H&E-stained tissue were captured using the Aperio ScanScope XT automated scanning system (Vista, CA). Image J software was used to quantitate rhodanine staining.

With `c1ccc(CNCCCCNCc2ccccn2)nc1` [Analog 2, N^1,N^4-bis(pyridin-2-ylmethyl)butane-1,4-diamine] the “complex formation with copper” value [1] was “Cu(II)-bound form” and the “complex formation with other metals” value [2] was “bound to all the metals tested”.
For `COC(=O)CC[C@@H](C)[C@H]1CC[C@H]2[C@@H]3[C@H](O)C[C@@H]4C[C@@H](NCCCCNCc5ccccn5)CC[C@]4(C)[C@H]3CC[C@]12C` [DPM-1013], the “complex formation with copper” value [1] was “formed complexes with free Cu, CuSO4; also recorded: formed complexes with free Cu, CuCl2”, the “Percentage (binding percentage)” value ([1]; CuCl2) was 74.29% and the “Percentage (binding percentage)” value ([1]; CuSO4) was 82.23%.
With `CC(C)[C@@H](CC[C@@H](C)[C@H]1CC[C@H]2[C@@H]3[C@H](O)C[C@H]4C[C@@H](NCCCNCCCCNCCCN)CC[C@]4(C)[C@H]3CC[C@]12C)OS(=O)(=O)O` [MSI-1436, 3-N-1(spermine)-7,24-dihydroxy-5-cholestane 24-sulfate, reference compound] the “reversibility of inhibition of PTP1B1-405” value ([3]; enzyme-inhibitor complex diluted, activity recovery monitored) was “reversible inhibitor”, the “time until PTP1B activity recovers” value ([3]; sample diluted 100-fold) was at most 60 min and the “reversibility of inhibition of PTP1B1-321” value [4] was “reversible inhibitor”. The “sensitivity of PTP1B-L192A/S372P to inhibitor” value [5] was “insensitive” and the “complex formation with copper” value [1] was “does not form a complex with copper”.
In the case of `[SH-].[SH-].[S]=[Mo]=[S]` [tetrathiomolybdate, reference compound], the “copper levels in feces” value ([6]; TX mice) is reported as “only a small increase”, the “copper levels in liver and brain” value ([6]; TX mice, ICP-MS) is reported as “prevented accumulation of copper in liver and brain” and the “copper levels in kidney” value ([6]; wild-type and TX mice, ICP-MS) is reported as “caused accumulation of copper in the kidney; also recorded: dramatically elevated copper levels in the kidney”.
